Reference: BindingDB's records for doi:10.3109/14756360903049059 (China Pharmaceutical University, 2010)

Target: T1, 3-oxoacyl-[acyl-carrier-protein] synthase 3 (Mycobacterium tuberculosis (strain ATCC 25618 / H37Rv), UniProt P9WNG3)
T1 sequence (P9WNG3 whole entry): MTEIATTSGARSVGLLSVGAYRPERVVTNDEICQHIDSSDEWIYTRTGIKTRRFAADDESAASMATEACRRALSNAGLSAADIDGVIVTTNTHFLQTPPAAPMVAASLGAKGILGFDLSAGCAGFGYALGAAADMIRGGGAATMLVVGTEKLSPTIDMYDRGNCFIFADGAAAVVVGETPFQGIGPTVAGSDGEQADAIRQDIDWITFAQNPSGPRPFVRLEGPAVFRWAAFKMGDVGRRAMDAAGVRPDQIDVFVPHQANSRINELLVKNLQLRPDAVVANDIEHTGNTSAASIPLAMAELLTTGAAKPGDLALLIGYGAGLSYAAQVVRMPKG
Test: 3D-QSAR
Experimental: The biological activities of the compounds were evaluated in the same laboratory. Biological activities measured as IC50 were converted to pIC50 (−log(IC50)) for use in the 3D-QSAR study.

Structure (SMILES) | IC50 [µM]
C#CC1(C)SC(=O)C(C)=C1O (centres undefined) [mtFabH inhibitor, 2] | 100
CC(=O)c1ccc(C#CC2(C)SC(=O)C(C)=C2O)cc1 (centres undefined) [mtFabH inhibitor, 3] | 4
CC(=O)c1ccc(C#CC2(C)SC(=O)C(C)=C2O)cc1O (centres undefined) [mtFabH inhibitor, 4] | 7
COC(=O)c1ccc(CC#CC2(C)SC(=O)C(C)=C2O)cc1 (centres undefined) [mtFabH inhibitor, 5] | 74
CC1=C(O)C(C)(C#CCc2ccc([N+](=O)[O-])cc2)SC1=O (centres undefined) [mtFabH inhibitor, 6] | 34
CC1=C(O)C(C)(C#CCc2ccc(C#N)cc2)SC1=O (centres undefined) [mtFabH inhibitor, 7] | 7
CC1=C(O)C(C)(C#Cc2ccccc2C#N)SC1=O (centres undefined) [mtFabH inhibitor, 8] | 48
CC1=C(O)C(C)(Cc2ccccc2)SC1=O (centres undefined) [mtFabH inhibitor, 9] | 250
COc1ccc(CC2(C)SC(=O)C(C)=C2O)cc1 (centres undefined) [mtFabH inhibitor, 12] | 155
COc1ccc(C2(C)SC(=O)C(C)=C2O)cc1 (centres undefined) [mtFabH inhibitor, 13] | 500
CC(=O)Nc1cccc(-c2ccc(CC3(C)SC(=O)C(C)=C3O)cc2)c1 (centres undefined) [mtFabH inhibitor, 25] | 119
CCCCCCCCCCCCCC1(C)SC(=O)C(C)=C1O (centres undefined) [mtFabH inhibitor, 26] | 80
CC1=C(O)C(C)(Cc2ccc(C(F)(F)F)cc2)SC1=O (centres undefined) [mtFabH inhibitor, 27] | 100
CC1=C(O)C(C)(Cc2cccc(C(=O)c3ccccc3)c2)SC1=O (centres undefined) [mtFabH inhibitor, 40] | 283
